Experimental data published in US11730705B2, “Small molecule CMKLR1 antagonists in inflammatory disease” (The Board of Trustees of the Leland Stanford Junior …, priority 2019, dated 2023).

Columns and labels:
(hu)CMKLR1 L1.2 cells = molecular target: T1, (hu)CMKLR1 L1.2 cells (Homo sapiens, UniProt Q99788); experiment: Chemotaxis assay (chemerin-dependent CMKLR1+ cell migration); type: cell-based; conditions: Table 3; migration toward huChemerin, 2 h transwell; read-out: Chemotaxis IC50 μM mean ± SEM (n)
T1 construct: expressed in transfected cells; host or cells: L1.2 pre-B cell lymphoma cells
T1 sequence (Q99788 1-373): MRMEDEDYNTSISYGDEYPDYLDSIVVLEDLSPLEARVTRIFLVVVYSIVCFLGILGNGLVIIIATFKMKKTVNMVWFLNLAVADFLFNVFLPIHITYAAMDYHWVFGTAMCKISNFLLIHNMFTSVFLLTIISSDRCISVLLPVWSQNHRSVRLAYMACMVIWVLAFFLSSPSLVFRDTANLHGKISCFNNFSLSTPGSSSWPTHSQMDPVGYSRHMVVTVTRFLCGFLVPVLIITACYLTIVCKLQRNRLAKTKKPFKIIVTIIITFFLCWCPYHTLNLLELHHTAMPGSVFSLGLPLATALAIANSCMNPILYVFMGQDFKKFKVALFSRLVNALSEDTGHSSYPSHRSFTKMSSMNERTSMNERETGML
Protocol: Cell culture. (hu)CMKLR1 transfectants (generated in L1.2 pre-B cell lymphoma cells) were grown in RPMI 1640 (Corning) supplemented with L-glutamine, penicillin-streptomycin, and 10% BCS and G418-sulfate (KSE Scientific). DiscoverX PathHunter® CHO-K1 CMKLR1 β-Arrestin Cells were grown in RPMI lacking phenol red (Gibco, Life Technologies), supplemented with L-glutamine, penicillin-streptomycin, sodium pyruvate, non-essential amino acid, BCS, hygromycin, and G418-sulfate.
Chemotaxis assay. (hu)CMKLR1 L1.2 cells at 1×10^6 cell/ml were treated with 5 mM sodium butyrate (Sigma) overnight to induce hCMKLR1 expression. The next day, cells were washed in migration media (RPMI+0.5% BSA) and resuspended at 1.5-3×10^6 cell/ml. Cells were pre-incubated at RT for 10 min with various concentrations of α-NETA or test compounds (α-NETA and test compounds were reconstituted in DMSO; final DMSO concentration in each well was 0.1%). 100 ul of cells were added to the upper chamber of a 24-well transwell plate (5 um pore size, Costar). Cells were allowed to migrate toward huChemerin ([…] in migration media, bottom chamber) for 2 h, 37° C., 5% CO2. The number of migrated cells was quantified by flow cytometry (BD LSR2), and live cells were distinguished based on FSC×SSC properties. The background for this assay was typically low with 0 cells migrating to the buffer alone. For each independent trial, data was normalized to the maximum migration per compound tested and an IC50 value was generated using GraphPad Prism software. The average IC50 value for n independent trials (as specified in the table) is reported.

Cyp2B6 = molecular target: T2, Cyp2B6 (Homo sapiens, UniProt P20813); experiment: Cyp enzyme inhibition, human liver microsomes; type: in vitro ADME; conditions: 30 min pre-incubation
T2 construct: Human liver microsomes were pre-incubated with 7 concentrations; tissue Cyprotex/Evotec AG; host or cells: human liver microsomes
T2 sequence (P20813 1-491): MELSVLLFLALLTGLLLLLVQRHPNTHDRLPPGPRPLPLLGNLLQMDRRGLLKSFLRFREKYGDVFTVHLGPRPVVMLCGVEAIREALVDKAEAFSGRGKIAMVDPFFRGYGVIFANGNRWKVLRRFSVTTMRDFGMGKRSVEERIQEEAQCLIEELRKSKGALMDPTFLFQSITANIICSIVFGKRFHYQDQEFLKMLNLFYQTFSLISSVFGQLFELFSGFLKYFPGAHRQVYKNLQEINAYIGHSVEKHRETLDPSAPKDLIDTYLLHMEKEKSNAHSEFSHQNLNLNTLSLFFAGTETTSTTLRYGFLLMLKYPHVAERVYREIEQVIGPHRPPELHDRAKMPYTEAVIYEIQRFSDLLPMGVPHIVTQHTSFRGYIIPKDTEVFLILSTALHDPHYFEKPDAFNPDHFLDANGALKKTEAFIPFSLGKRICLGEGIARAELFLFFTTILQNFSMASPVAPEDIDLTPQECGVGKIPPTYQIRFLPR
Protocol: (§1) Cyp enzyme inhibition. Human liver microsomes were pre-incubated with 7 concentrations ([…], duplicate wells) of α-NETA for 30 min.

Cyp2C19 = molecular target: T3, Cyp2C19 (Homo sapiens, UniProt P33261); experiment: Cyp enzyme inhibition, human liver microsomes; type: in vitro ADME; conditions: 30 min pre-incubation
T3 construct: Human liver microsomes were pre-incubated with 7 concentrations; tissue Cyprotex/Evotec AG; host or cells: human liver microsomes
Protocol: as §1

Cyp2C8 = molecular target: T4, Cyp2C8 (Homo sapiens, UniProt P10632); experiment: Cyp enzyme inhibition, human liver microsomes; type: in vitro ADME; conditions: 30 min pre-incubation
T4 construct: Human liver microsomes were pre-incubated with 7 concentrations; tissue Cyprotex/Evotec AG; host or cells: human liver microsomes
T4 sequence (P10632 1-490): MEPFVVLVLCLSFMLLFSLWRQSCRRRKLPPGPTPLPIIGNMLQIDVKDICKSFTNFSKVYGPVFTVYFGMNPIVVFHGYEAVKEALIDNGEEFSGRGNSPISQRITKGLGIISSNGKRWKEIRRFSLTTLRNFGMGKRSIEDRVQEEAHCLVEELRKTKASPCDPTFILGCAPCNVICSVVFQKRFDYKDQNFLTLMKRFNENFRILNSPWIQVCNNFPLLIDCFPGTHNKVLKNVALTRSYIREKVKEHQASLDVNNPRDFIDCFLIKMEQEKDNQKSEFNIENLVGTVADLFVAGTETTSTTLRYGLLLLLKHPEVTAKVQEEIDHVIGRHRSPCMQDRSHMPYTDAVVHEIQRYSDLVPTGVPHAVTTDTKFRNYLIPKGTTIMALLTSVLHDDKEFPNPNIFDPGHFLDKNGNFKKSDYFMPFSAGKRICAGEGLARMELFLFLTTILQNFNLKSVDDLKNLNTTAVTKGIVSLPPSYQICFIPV
Protocol: as §1

Cyp2C9 = molecular target: T5, Cyp2C9 (Homo sapiens, UniProt P11712); experiment: Cyp enzyme inhibition, human liver microsomes; type: in vitro ADME; conditions: 30 min pre-incubation
T5 construct: Human liver microsomes were pre-incubated with 7 concentrations; tissue Cyprotex/Evotec AG; host or cells: human liver microsomes
Protocol: as §1

C57/BL6 mice = experiment: α-NETA acute single dose toxicity (LD50); type: in vivo, mouse
Excerpt: FIG. 3. Acute single dose toxicity (LD50) of α-NETA. […] The remaining mice were monitored for 14 days. Graph depicts lethality at each dose, n=3 per mice/dose.

Cyp3A4 = Cyp3A4 (Homo sapiens, UniProt P08684); conditions: substrate luciferin-6′ phenylpiperazinylyl; read-out: Cyp3A4 IC50 listed in PubChem; cited from earlier work
[1] = tested on: Salmonella typhimurium (TA100); experiment: Ames test for genotoxicity; conditions: concentrations up to at least 10 uM

Sequence of Cyp3A4 (P08684 whole entry): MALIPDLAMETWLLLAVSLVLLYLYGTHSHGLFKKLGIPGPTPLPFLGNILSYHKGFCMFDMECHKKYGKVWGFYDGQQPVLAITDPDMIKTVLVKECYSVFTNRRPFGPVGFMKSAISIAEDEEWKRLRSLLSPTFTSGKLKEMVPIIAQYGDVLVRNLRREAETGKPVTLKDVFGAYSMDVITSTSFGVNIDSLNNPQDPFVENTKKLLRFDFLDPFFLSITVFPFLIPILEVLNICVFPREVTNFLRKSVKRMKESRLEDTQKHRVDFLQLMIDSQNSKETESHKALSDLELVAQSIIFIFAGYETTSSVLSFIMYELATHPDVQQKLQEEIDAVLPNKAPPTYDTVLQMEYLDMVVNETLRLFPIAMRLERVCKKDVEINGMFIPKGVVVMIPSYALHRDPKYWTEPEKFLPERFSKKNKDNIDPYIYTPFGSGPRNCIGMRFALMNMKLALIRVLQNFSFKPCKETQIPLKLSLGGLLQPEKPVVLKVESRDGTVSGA
T3 sequence (P33261 whole entry): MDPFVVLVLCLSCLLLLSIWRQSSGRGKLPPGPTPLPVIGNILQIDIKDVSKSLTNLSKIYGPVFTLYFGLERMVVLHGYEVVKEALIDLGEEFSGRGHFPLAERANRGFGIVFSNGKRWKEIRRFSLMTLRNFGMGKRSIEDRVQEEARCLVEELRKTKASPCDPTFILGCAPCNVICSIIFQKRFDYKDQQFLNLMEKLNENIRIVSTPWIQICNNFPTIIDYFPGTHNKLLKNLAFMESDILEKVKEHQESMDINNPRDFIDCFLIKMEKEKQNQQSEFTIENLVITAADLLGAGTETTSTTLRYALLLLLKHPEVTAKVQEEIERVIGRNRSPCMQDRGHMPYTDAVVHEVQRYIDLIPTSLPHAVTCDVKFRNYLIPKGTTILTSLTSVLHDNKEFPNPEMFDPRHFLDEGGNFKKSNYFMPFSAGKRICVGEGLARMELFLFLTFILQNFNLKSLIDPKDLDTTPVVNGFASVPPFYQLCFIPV
T5 sequence (P11712 whole entry): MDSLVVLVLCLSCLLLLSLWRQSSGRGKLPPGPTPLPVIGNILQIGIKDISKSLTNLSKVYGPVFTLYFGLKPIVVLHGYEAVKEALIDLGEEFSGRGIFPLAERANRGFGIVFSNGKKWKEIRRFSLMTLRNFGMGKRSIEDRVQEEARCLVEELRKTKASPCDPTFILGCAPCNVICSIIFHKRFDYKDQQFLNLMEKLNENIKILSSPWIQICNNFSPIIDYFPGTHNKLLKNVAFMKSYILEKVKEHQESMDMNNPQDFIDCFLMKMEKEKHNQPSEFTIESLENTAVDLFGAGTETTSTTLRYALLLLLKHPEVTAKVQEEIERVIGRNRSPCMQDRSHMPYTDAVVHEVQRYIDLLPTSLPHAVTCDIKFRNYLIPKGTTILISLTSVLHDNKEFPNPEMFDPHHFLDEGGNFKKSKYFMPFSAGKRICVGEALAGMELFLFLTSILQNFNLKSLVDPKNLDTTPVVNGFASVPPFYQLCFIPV

SMILES: C[N+](C)(C)CCC(=O)c1cccc2ccccc12.[I-] [α-NETA, 2-(α-naphthoyl) ethyltrimethylammonium iodide]
- IC50 ((hu)CMKLR1 L1.2 cells): 37 ± 8.9 µM
- IC50 (Cyp2B6): 0.12 µM
- IC50 (Cyp2C19): 84 µM
- IC50 (Cyp2C8): 1.5 µM
- IC50 (Cyp2C9): 14.6 µM
- calculated LD50, acute single dose (C57/BL6 mice; p.o., mice, 10% captisol): 873 mg/kg
- lethality (C57/BL6 mice; two highest doses (3000, 1000 mg/kg) by oral gavage): Lethal effects were observed within hours
- IC50 (Cyp3A4): 0.2 µM
- mutagenesis (reversion of an obligate histidine mutation) [1]: did not induce mutagenesis
